# Source: article PMC5775429, “LY2087101 and dFBr share transmembrane binding sites in the (α4)3(β2)2 Nicotinic Acetylcholine Receptor” (Scientific Reports, 2018)
# Experiments:
# Experiment in all cases: Two-electrode voltage-clamp of ACh-induced currents in Xenopus oocytes
# Assay type in all cases: cell-based
# Details in all cases: 10 µM ACh + 1 µM LY2087101 vs 10 µM ACh alone
# [1] = target: (α4E92I)3(β2)2 nAChR (Homo sapiens, UniProt P43681, E92I)
# Description: (§1) For amino acid substitutions within the α4 nAChR subunit, point mutations were introduced into pSP64ployA plasmid with cDNA encoding for human α4 nAChR subunit with mutagenic primer pairs using the Quick Change II Site-Directed Mutagenesis Kit (Agilent Technologies) then confirmed by DNA sequencing (GENEWIZ, LLC, South Plainfield, NJ). cRNA transcripts suitable for oocyte expression were prepared in vitro from linearized plasmids [α3 (BamH1), α4 (AseI), β2 (PvuII), β4 (XhoI)] using mMESSAGE mMACHINE high yield capped RNA transcription kits (Ambion) and purified on NucAway Spin column (Invitrogen). cRNA concentration was determined by spectroscopy (Concentration (ug/ul) = Abs260 * 40), aliquoted and stored at −80 °C until used.
# (§2) Ovarian lobules were surgically harvested from oocytes-positive female Xenopus laevis (NASCO, Fort Atkinson, WI) according to an animal use protocol approved by the Texas A&M Health Sciences Center Institutional Animals Care and Use Committee. The Texas A&M Health Sciences Center Research Facility is registered as an animal research facility with the United States Department of Agriculture and is fully accredited by the American Association for Accreditation of Laboratory Animal Care (AAALAC). For oocytes defolliculation, ovarian lobes were treated with 3 mg/ml collagenase type 2 (Worthington Biomedical, Lakewood, NJ) in Ca + 2-free buffer (85 mM NaCl, 2.5 mM KCl, 1 mM MgCl2, 5 mM HEPES, pH 7.6). Collagenase treatment was allowed to proceed for 3 hours at room temperature with gentle shaking then oocytes were washed several times with buffer to remove collagenase then with ND96-gentamicine buffer. Healthy Stage V and VI oocytes were visually selected and maintained at 18 °C in modified ND96-gentamicine buffer (96 mM NaCl, 2 mM KCl, 1.8 mM CaCl2, 1 mM MgCl2, 5 mM HEPES, 50 µg/ml gentamicin, pH 7.6). Oocytes were injected with 50–100 ng of the desired nAChR subunits cRNA mix at ratios of 8α:1β or 1α:8β to express nAChRs with subunit stoichiometries of 3α:2β (low agonist sensitivity) or 2α:3β (high agonist sensitivity), respectively.
# (§3) Two-electrode voltage clamp recording of ACh-induced responses of Xenopus oocytes were performed 24–72 h following injection of nAChR subunit cRNA mix to ensure adequate nAChRs expression. Xenopus oocytes were placed in a custom-made recording chamber that is connected to eight channels automated perfusion system (Warner Instruments) and voltage-clamped at −50 mV using Oocyte Clamp OC-725B (Warner Instruments). Oocytes were continuously perfused with recording buffer (100 mM NaCl, 2 mM KCl, 1 mM CaCl2, 0.8 mM MgCl2, 1 mM EGTA, 10 mM Hepes, pH 7.5) except during periods of drug applications. […] Currents were digitized using Digidata 1550 A (Axon Instruments) and peak currents were quantified using pCLAMP 10 (Axon Instruments) then normalized and analyzed using Excels 2010 (Microsoft corporation) and SigmaPlot 11.0 (Systat Software).
# [2] = target: (α4G67E)3(β2)2 nAChR (Homo sapiens, UniProt P43681, G67E)
# Description: as §1, §2, §3
# [3] = target: (α4H142L)3(β2)2 nAChR (Homo sapiens, UniProt P43681, H142L)
# Description: as §1, §2, §3
# [4] = target: (α4H94N)3(β2)2 nAChR (Homo sapiens, UniProt P43681, H94N)
# Description: as §1, §2, §3
# [5] = target: (α4L63I)3(β2)2 nAChR (Homo sapiens, UniProt P43681, L63I)
# Description: as §1, §2, §3
# [6] = target: (α4Q150T)3(β2)2 nAChR (Homo sapiens, UniProt P43681, Q150T)
# Description: as §1, §2, §3
# [7] = target: (α4R148E)3(β2)2 nAChR (Homo sapiens, UniProt P43681, R148E)
# Description: as §1, §2, §3
# [8] = target: (α4R65H)3(β2)2 nAChR (Homo sapiens, UniProt P43681, R65H)
# Description: as §1, §2, §3
# [9] = target: (α4T152I)3(β2)2 nAChR (Homo sapiens, UniProt P43681, T152I)
# Description: as §1, §2, §3
# Chain of (α4H94N)3(β2)2 nAChR (P43681 29-627 H94N limits assumed): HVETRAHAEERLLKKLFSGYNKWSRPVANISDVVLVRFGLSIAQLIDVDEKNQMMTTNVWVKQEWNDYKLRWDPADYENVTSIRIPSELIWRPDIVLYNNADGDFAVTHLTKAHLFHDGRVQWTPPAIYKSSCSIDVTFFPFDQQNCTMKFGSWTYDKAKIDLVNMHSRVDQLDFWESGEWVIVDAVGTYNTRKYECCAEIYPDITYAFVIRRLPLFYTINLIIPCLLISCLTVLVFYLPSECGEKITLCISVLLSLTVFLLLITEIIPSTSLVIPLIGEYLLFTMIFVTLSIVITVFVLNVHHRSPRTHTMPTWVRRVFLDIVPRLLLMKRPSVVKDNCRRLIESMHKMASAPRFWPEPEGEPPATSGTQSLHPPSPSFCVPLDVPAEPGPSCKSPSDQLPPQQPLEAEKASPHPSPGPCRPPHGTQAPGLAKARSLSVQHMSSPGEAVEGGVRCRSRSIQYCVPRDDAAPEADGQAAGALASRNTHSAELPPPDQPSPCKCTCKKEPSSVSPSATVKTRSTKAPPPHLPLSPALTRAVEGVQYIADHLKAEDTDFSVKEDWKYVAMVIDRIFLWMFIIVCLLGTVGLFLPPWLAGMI
# Chain of (α4H94N)3(β2)2 nAChR (P17787 26-502 partner): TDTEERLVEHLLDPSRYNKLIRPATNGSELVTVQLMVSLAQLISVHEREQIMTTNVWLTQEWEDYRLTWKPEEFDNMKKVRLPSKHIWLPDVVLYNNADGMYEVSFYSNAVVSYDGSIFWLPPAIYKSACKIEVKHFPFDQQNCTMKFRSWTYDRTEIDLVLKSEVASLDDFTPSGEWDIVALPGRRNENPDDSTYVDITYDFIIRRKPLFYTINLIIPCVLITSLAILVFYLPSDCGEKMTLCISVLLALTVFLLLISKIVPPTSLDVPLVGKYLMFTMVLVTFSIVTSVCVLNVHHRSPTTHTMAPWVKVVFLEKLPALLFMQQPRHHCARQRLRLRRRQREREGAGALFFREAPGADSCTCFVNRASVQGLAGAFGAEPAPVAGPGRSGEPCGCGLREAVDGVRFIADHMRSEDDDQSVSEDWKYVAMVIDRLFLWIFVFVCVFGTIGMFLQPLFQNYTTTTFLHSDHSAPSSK
# Chain of (α4Q150T)3(β2)2 nAChR (P43681 29-627 Q150T limits assumed): as the sequence (P43681 29-627 H94N limits assumed) above, with N66H, Q122T counted along it
# Chain of (α4Q150T)3(β2)2 nAChR (P17787 26-502 partner): as the sequence (P17787 26-502 partner) above
# Chain of (α4R65H)3(β2)2 nAChR (P43681 29-627 R65H limits assumed): as the sequence (P43681 29-627 H94N limits assumed) above, with R37H, N66H counted along it
# Chain of (α4R65H)3(β2)2 nAChR (P17787 26-502 partner): as the sequence (P17787 26-502 partner) above
# Chain of (α4L63I)3(β2)2 nAChR (P43681 29-627 L63I limits assumed): as the sequence (P43681 29-627 H94N limits assumed) above, with L35I, N66H counted along it
# Chain of (α4L63I)3(β2)2 nAChR (P17787 26-502 partner): as the sequence (P17787 26-502 partner) above
# Chain of (α4G67E)3(β2)2 nAChR (P43681 29-627 G67E limits assumed): as the sequence (P43681 29-627 H94N limits assumed) above, with G39E, N66H counted along it
# Chain of (α4G67E)3(β2)2 nAChR (P17787 26-502 partner): as the sequence (P17787 26-502 partner) above
# Chain of (α4T152I)3(β2)2 nAChR (P43681 29-627 T152I limits assumed): as the sequence (P43681 29-627 H94N limits assumed) above, with N66H, T124I counted along it
# Chain of (α4T152I)3(β2)2 nAChR (P17787 26-502 partner): as the sequence (P17787 26-502 partner) above
# Chain of (α4R148E)3(β2)2 nAChR (P43681 29-627 R148E limits assumed): as the sequence (P43681 29-627 H94N limits assumed) above, with N66H, R120E counted along it
# Chain of (α4R148E)3(β2)2 nAChR (P17787 26-502 partner): as the sequence (P17787 26-502 partner) above
# Chain of (α4E92I)3(β2)2 nAChR (P43681 29-627 E92I limits assumed): as the sequence (P43681 29-627 H94N limits assumed) above, with E64I, N66H counted along it
# Chain of (α4E92I)3(β2)2 nAChR (P17787 26-502 partner): as the sequence (P17787 26-502 partner) above
# Chain of (α4H142L)3(β2)2 nAChR (P43681 29-627 H142L limits assumed): as the sequence (P43681 29-627 H94N limits assumed) above, with N66H, H114L counted along it
# Chain of (α4H142L)3(β2)2 nAChR (P17787 26-502 partner): as the sequence (P17787 26-502 partner) above
smiles,measurement,setting,value
"Cc1nc(Nc2ccc(F)cc2)sc1C(=O)c1ccsc1 [LY2087101, [2-[(4-Fluorophenyl)amino]-4-methyl-5-thiazolyl]-3-thienylmethanone]","R, potentiation ratio (PR)",[1],10.9 ± 2.6
same,"R, potentiation ratio (PR)",[2],5.2 ± 0.7
same,"R, potentiation ratio (PR)",[3],8.7 ± 0.5
same,"R, potentiation ratio (PR)",[4],5.2 ± 1.0
same,"R, potentiation ratio (PR)",[5],4.3 ± 0.4
same,"R, potentiation ratio (PR)",[6],4.3 ± 0.2
same,"R, potentiation ratio (PR)",[7],11.1 ± 1.2
same,"R, potentiation ratio (PR)",[8],7.4 ± 1.3
same,"R, potentiation ratio (PR)",[9],4.3 ± 1.3
